Data published in patent publication US8962665B2, “Thiazole and oxazole kinase inhibitors” (AB Science, priority 2010, dated 2015).

Biological target: T1, Syk (Homo sapiens, UniProt P43405)
T1 construct: SYK kinase was purified as a full length protein in a baculovirus system near homogeneity; made in house; host or cells: baculovirus system
Experiment: Syk kinase HTRF (Kinease TK) assay
Assay type: biochemical
Protocol: SYK kinase was purified as a full length protein in a baculovirus system near homogeneity. JAKs kinases (JAK1, JAK2 and JAK3) were purchased either from Invitrogen or from Millipore. All kinases assays were performed with the Kinease TK (tyrosine kinase) HTRF (Homogeneous Time Resolved Fluorescence) assay developed by Cisbio international. […] Reactions were initiated upon introduction of the enzyme and terminated with the addition of one reaction volume (25 μl) of HTRF detection buffer. Plates were incubated for one hour at room temperature and the time resolved Fluorescence resonance energy transfer signal was measured in a Pherastar FS microplate reader (BMG Labtech). All data are the average of triplicate results with a standard deviation<10%.

| IC50 | Compound |
| --- | --- |
| < 1000 nM | Cc1ccnc(Nc2cccc(-c3cnc(-c4cccnc4)s3)n2)c1 [Example 020, (4-Methyl-pyridin-2-yl)-[6-(2-pyridin-3-yl-thiazol-5-yl)-pyridin-2-yl]-amine] |
| < 1000 nM | Cc1ccnc(Nc2cccc(-c3cnc(-c4ccc[nH]c4=O)o3)n2)c1 [Example 045, 3-{5-[6-(4-methyl-pyridin-2-ylamino)-pyridin-2-yl]-oxazol-2-yl}-1H-pyridin-2-one] |
| < 1000 nM | Cc1ccnc(Nc2cccc(-c3cnc(-c4nc5ccccc5o4)o3)n2)c1 [Example 048, [6-(2-benzoxazole-2-yl-oxazol-5-yl)-pyridin-2-yl]-(4-methyl-pyridin-2-yl)-amine] |
| < 1000 nM | Cc1ccnc(Nc2cccc(-c3cnc(-c4ccccc4)s3)n2)c1 [Example 056, (4-Methyl-pyridin-2-yl)-[6-(2-phenyl-thiazol-5-yl)-pyridin-2-yl]-amine] |
| 1000 to 10000 nM | Cc1ccnc(Nc2cccc(-c3cnc(-c4c(C)cccc4C)o3)n2)c1 [Example 062, {6-[2-(2,6-Dimethyl-phenyl)-oxazol-5-yl]-pyridin-2-yl}-(4-methyl-pyridin-2-yl)-amine] |
| 1000 to 10000 nM | Cc1ccnc(Nc2cccc(-c3cnc(-c4cccc(C#N)c4)s3)n2)c1 [Example 064, 3-{5-[6-(4-Methyl-pyridin-2-ylamino)-pyridin-2-yl]-thiazol-2-yl}-benzonitrile] |
| < 1000 nM | Cc1ccnc(Nc2cccc(-c3cnc(-c4ccc5[nH]ccc5c4)o3)n2)c1 [Example 069, {6-[2-(1H-Indol-5-yl)-oxazol-5-yl]-pyridin-2-yl}-(4-methyl-pyridin-2-yl)-amine] |
| < 1000 nM | Cc1ccnc(Nc2cccc(-c3cnc(-c4ccccn4)s3)n2)c1 [Example 080, (4-Methyl-pyridin-2-yl)-[6-(2-pyridin-2-yl-thiazol-5-yl)-pyridin-2-yl]-amine] |
| < 1000 nM | Cc1ccnc(Nc2cccc(-c3cnc(N4CCOCC4)o3)n2)c1 [Example 099, (4-Methyl-pyridin-2-yl)-[6-(2-morpholin-4-yl-oxazol-5-yl)-pyridin-2-yl]-amine] |
| 1000 to 10000 nM | Cc1ccc(Nc2cccc(-c3cnc(-c4ccc5[nH]ccc5c4)o3)n2)nc1 [Example 116, {6-[2-(1H-Indol-5-yl)-oxazol-5-yl]-pyridin-2-yl}-(5-methyl-pyridin-2-yl)-amine] |
| < 1000 nM | Cc1ccc(Nc2cccc(-c3cnc(N4CCNC(=O)C4)o3)n2)nc1 [Example 118, 4-{5-[6-(5-Methyl-pyridin-2-ylamino)-pyridin-2-yl]-oxazol-2-yl}-piperazine-2-one] |
| 1000 to 10000 nM | Clc1ccnc(Nc2cccc(-c3cnc(-c4ccsc4)o3)n2)c1 [Example 120, (4-Chloro-pyridin-2-yl)-[6-(2-thiophen-3-yl-oxazol-5-yl)-pyridin-2-yl]-amine] |
| < 1000 nM | O=C1CN(c2ncc(-c3cccc(Nc4cnccn4)n3)o2)CCN1 [Example 140, 4-{5-[6-(Pyrazin-2-ylamino)-pyridin-2-yl]-oxazol-2-yl}-piperazine-2-one] |
